# Results reported in US4618604A, “Composition and method for improving feed utilization or tissue production in animals” (Monsanto Company, priority 1984, dated 1986).
# Where a name gives a salt, the structure may show the parent alone.
# Tests used:
# [1] = Chick growth feeding trial (weight gain and feed conversion, treated vs untreated chicks); assay type: in vivo
# [2] = Pig growth feeding trials I-III (weight gain and feed efficiency, treated vs untreated pigs); assay type: in vivo; conditions: Example 2, growing period about 18-90 kg
# Source text: The following examples are included to illustrate the improved feed utilization and/or tissue producing effect of the substituted phenylphosphinic acid derivatives of the present invention. It should be understood that examples are included to illustrate the practice of the present invention and are not intended to limit the scope of the invention. It should be further understood that the dosage levels recited in the following examples are only illustrative and are not meant to limit the scope of the invention. Unless otherwise noted, all percentages are by weight. Comparisons are between the numerical average for treated animals and the numerical average for untreated animals.
# A swine diet for growing pigs prepared from the following types and amounts of ingredients:
# Three trials were conducted wherein pigs were administered 2-methoxyphenylmethylphosphinic acid at dosage levels of 2.0, 10.0, 20.0 (TRIAL I); 0.5, 2.0, 8.0 (TRIAL II); and 0.5, 2.0, 8.0 (TRIAL III) milligrams per kilogram of finished feed throughout a growing period of about 18-90 kg.
# [3] = Examples 4 and 6, 1 mg and 10 mg per kg feed
# [4] = trials I and II, 2.0 mg/kg finished feed
# [5] = Example 10, 1, 20, 60 or 100 mg per kg feed
structure (smiles),measurement,setting,value
CP(=O)(O)c1ccccc1Cl [2-chlorophenylmethylphosphinic acid],daily weight gain,"[1]; Example 5, 0.5 mg per kg feed",higher daily weight gain than untreated chicks
CP(=O)(O)c1ccccc1N [2-aminophenylmethylphosphinic acid hydrochloride salt],average daily weight gain,"[1]; Example 9, 2.0 mg per kg feed",higher average daily weight gain than untreated chicks
CP(=O)(O)c1ccccc1O [Ammonium 2-hydroxyphenylmethylphosphinate],average daily weight gain,[1]; [3],higher average daily weight gain than untreated chicks
CP(=O)(O)c1ccccc1[N+](=O)[O-] [2-nitrophenylmethylphosphinic acid],average daily weight gain,[1]; [3],higher average daily weight gain than untreated chicks
CCP(=O)(O)c1ccccc1OC [2-methoxyphenylethylphosphinic acid],average daily weight gain,"[1]; Example 8, 10 mg per kg feed",higher average daily weight gain than untreated chicks
COc1ccccc1P(C)(=O)O [2-methoxyphenylmethylphosphinic acid],weight gain,"[2]; 10.0 and 20.0 mg/kg finished feed, vs untreated",gained weight faster than untreated pigs
same,daily weight gain,[2]; [4],faster daily weight gain
same,feed efficiency,[2]; [4],improved feed efficiency
same,average daily gain,[1]; [5],higher average daily gain
same,conversion of feed to weight gain,[1]; [5],converted feed to weight gain more efficiently than untreated chicks
Cc1ccccc1P(C)(=O)O [2-methylphenylmethylphosphinic acid],conversion of feed to weight gain,"[1]; Example 3, 0.5 to 4.0 mg/kg feed, 45-48 days",converted feed to weight gain more efficiently than untreated chicks
"CP(=O)(O)c1ccccc1C(=O)O [2-carboxylphenylmethylphosphinic acid, 2-carboxyphenylmethylphosphinic acid]",average daily weight gain,"[1]; Example 7, 11 mg per kg feed",higher average daily weight gain than untreated chicks
